Legend:
Assay type in all cases: in vivo
Alopecurus myosuroides [1] = experiment: Post-emergence herbicidal activity test; settings: 2-4 weeks after treatment
How it was run: (§1)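 First, acetone solutions of each compound are diluted with water; next, the formulation is sprayed on emerged seedlings at rates equivalent to roughly 0.025 to 0.4 kg/ha per pot; finally, after 2 to 4 weeks of routine greenhouse care, plants are examined and rated.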

Cassia obtusifolia [2] = experiment: Post-emergence herbicidal activity test; settings: 2-4 weeks after treatment
How it was run: as §1

Zea mays [3] = experiment: Post-emergence herbicidal activity test; settings: 2-4 weeks after treatment
How it was run: as §1

Digitaria sanguinalis [4] = experiment: Post-emergence herbicidal activity test; settings: 2-4 weeks after treatment
How it was run: as §1

Setaria viridis [5] = experiment: Post-emergence herbicidal activity test; settings: 2-4 weeks after treatment
How it was run: as §1

Triticum aestivum [6] = experiment: Post-emergence herbicidal activity test; settings: 2-4 weeks after treatment
How it was run: as §1

Abutilon theophrasti [7] = experiment: Post-emergence herbicidal activity test; settings: 2-4 weeks after treatment
How it was run: as §1

Stellaria media = experiment: Post-emergence herbicidal activity test; settings: 2-4 weeks after treatment
How it was run: as §1

Orysa sativa [8] = experiment: Post-emergence herbicidal activity test; settings: 2-4 weeks after treatment
How it was run: as §1

Ipomoea hederacea [9] = experiment: Post-emergence herbicidal activity test; settings: 2-4 weeks after treatment
How it was run: as §1

Galium aparine [10] = experiment: Post-emergence herbicidal activity test; settings: 2-4 weeks after treatment
How it was run: as §1

Ambrosia artemisifolia [11] = experiment: Post-emergence herbicidal activity test; settings: 2-4 weeks after treatment
How it was run: as §1

Matricaria inodora [12] = experiment: Post-emergence herbicidal activity test; settings: 2-4 weeks after treatment
How it was run: as §1

Echinochloa crus-galli [13] = experiment: Post-emergence herbicidal activity test; settings: 2-4 weeks after treatment
How it was run: as §1

Glycine max [14] = experiment: Post-emergence herbicidal activity test; settings: 0.100 kg/ha, 2-4 weeks after treatment
How it was run: as §1

Alopecurus myosuroides [15] = experiment: Pre-emergence test; settings: 3 weeks after treatment
How it was run: (§2)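 Freshly sown seeds in horticultural loam were sprayed with compound dissolved in acetone with 0.4% w/w alkylphenol/ethylene oxide surfactant, diluted with water, at 0.013, 0.025, 0.100 or 0.400 kg a.i./ha in 900 L/ha. Untreated sown soil served as control; pots were rated 2 to 4 weeks after treatment.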

Cassia obtusifolia [16] = experiment: Pre-emergence test; settings: 3 weeks after treatment
How it was run: as §2

Zea mays [17] = experiment: Pre-emergence test; settings: 3 weeks after treatment
How it was run: as §2

Digitaria sanguinalis [18] = experiment: Pre-emergence test; settings: 3 weeks after treatment
How it was run: as §2

Setaria viridis [19] = experiment: Pre-emergence test; settings: 3 weeks after treatment
How it was run: as §2

Triticum aestivum [20] = experiment: Pre-emergence test; settings: 3 weeks after treatment
How it was run: as §2

Abutilon theophrasti [21] = experiment: Pre-emergence test; settings: 3 weeks after treatment
How it was run: as §2

Orysa sativa [22] = experiment: Pre-emergence test; settings: 3 weeks after treatment
How it was run: as §2

Lamium purpureum = experiment: Pre-emergence test; settings: 3 weeks after treatment
How it was run: as §2

Ipomoea hederacea [23] = experiment: Pre-emergence test; settings: 3 weeks after treatment
How it was run: as §2

Galium aparine [24] = experiment: Pre-emergence test; settings: 3 weeks after treatment
How it was run: as §2

Ambrosia artemisifolia [25] = experiment: Pre-emergence test; settings: 3 weeks after treatment
How it was run: as §2

Matricaria inodora [26] = experiment: Pre-emergence test; settings: 3 weeks after treatment
How it was run: as §2

Echinochloa crus-galli [27] = experiment: Pre-emergence test; settings: 3 weeks after treatment
How it was run: as §2

Glycine max [28] = experiment: Pre-emergence test; settings: 3 weeks after treatment
How it was run: as §2

Cc1cc(Oc2cc(C(F)(F)F)nn2C)nc(C#Cc2ccccc2)n1 [Example 161]
4 (4-Injury): Post-emergence application SETVI (Setaria viridis [5]; 0.100 kg/ha) | Post-emergence application ABUTH (Abutilon theophrasti [7]; 0.100 kg/ha) | Post-emergence application STEME (Stellaria media; 0.400 kg/ha) | Post-emergence application MATIN (Matricaria inodora [12]; 0.400 kg/ha) | Assessment (pre-emergence application) SETVI (Setaria viridis [19]; 0.100 kg/ha) | Assessment (pre-emergence application) ABUTH (Abutilon theophrasti [21]; 0.100 kg/ha) | Assessment (pre-emergence application) ABUTH (Abutilon theophrasti [21]; 0.400 kg/ha) | Assessment (pre-emergence application) MATIN (Matricaria inodora [26]; 0.100 kg/ha)
6 (6-Herbicidal effect): Post-emergence application SETVI (Setaria viridis [5]; 0.400 kg/ha)
9 (9-Complete kill): Post-emergence application IPOHE (Ipomoea hederacea [9]; 0.100 kg/ha) | Post-emergence application IPOHE (Ipomoea hederacea [9]; 0.400 kg/ha) | Assessment (pre-emergence application) ALOMY (Alopecurus myosuroides [15]; 0.025 kg/ha) | Assessment (pre-emergence application) DIGSA (Digitaria sanguinalis [18]; 0.400 kg/ha)
1 (1-Trace effect): Post-emergence application CASOB (Cassia obtusifolia [2]; 0.100 kg/ha) | Post-emergence application ECHCG (Echinochloa crus-galli [13]; 0.100 kg/ha) | Assessment (pre-emergence application) ALOMY (Alopecurus myosuroides [15]; 0.100 kg/ha) | Assessment (pre-emergence application) DIGSA (Digitaria sanguinalis [18]; 0.025 kg/ha) | Assessment (pre-emergence application) ORYSA (Orysa sativa [22]; 0.100 kg/ha) | Assessment (pre-emergence application) ORYSA (Orysa sativa [22]; 0.400 kg/ha) | Assessment (pre-emergence application) GALAP (Galium aparine [24]; 0.025 kg/ha) | Assessment (pre-emergence application) GALAP (Galium aparine [24]; 0.100 kg/ha) | Assessment (pre-emergence application) ECHCG (Echinochloa crus-galli [27]; 0.100 kg/ha) | Assessment (pre-emergence application) GLXMA (Glycine max [28]; 0.400 kg/ha)
2 (2-Slight effect): Post-emergence application ALOMY (Alopecurus myosuroides [1]; 0.100 kg/ha) | Post-emergence application ZEAMX (Zea mays [3]; 0.100 kg/ha) | Post-emergence application ZEAMX (Zea mays [3]; 0.400 kg/ha) | Post-emergence application DIGSA (Digitaria sanguinalis [4]; 0.100 kg/ha) | Post-emergence application DIGSA (Digitaria sanguinalis [4]; 0.400 kg/ha) | Post-emergence application TRZWA (Triticum aestivum [6]; 0.100 kg/ha) | Post-emergence application TRZWA (Triticum aestivum [6]; 0.400 kg/ha) | Post-emergence application STEME (Stellaria media; 0.100 kg/ha) | Post-emergence application ORYSA (Orysa sativa [8]; 0.100 kg/ha) | Post-emergence application ECHCG (Echinochloa crus-galli [13]; 0.400 kg/ha) | Assessment (pre-emergence application) SETVI (Setaria viridis [19]; 0.025 kg/ha) | Assessment (pre-emergence application) ABUTH (Abutilon theophrasti [21]; 0.025 kg/ha) | Assessment (pre-emergence application) MBEL (Ambrosia artemisifolia [25]; 0.025 kg/ha) | Assessment (pre-emergence application) MBEL (Ambrosia artemisifolia [25]; 0.100 kg/ha)
3 (3-Moderate effect): Post-emergence application ALOMY (Alopecurus myosuroides [1]; 0.400 kg/ha) | Post-emergence application CASOB (Cassia obtusifolia [2]; 0.400 kg/ha) | Post-emergence application ORYSA (Orysa sativa [8]; 0.400 kg/ha) | Post-emergence application MATIN (Matricaria inodora [12]; 0.100 kg/ha) | Post-emergence application GLXMA (Glycine max [14]) | Assessment (pre-emergence application) ALOMY (Alopecurus myosuroides [15]; 0.400 kg/ha) | Assessment (pre-emergence application) DIGSA (Digitaria sanguinalis [18]; 0.100 kg/ha) | Assessment (pre-emergence application) IPOHE (Ipomoea hederacea [23]; 0.100 kg/ha) | Assessment (pre-emergence application) IPOHE (Ipomoea hederacea [23]; 0.400 kg/ha) | Assessment (pre-emergence application) GALAP (Galium aparine [24]; 0.400 kg/ha) | Assessment (pre-emergence application) MATIN (Matricaria inodora [26]; 0.025 kg/ha) | Assessment (pre-emergence application) ECHCG (Echinochloa crus-galli [27]; 0.400 kg/ha)
0 (0-No effect): Assessment (pre-emergence application) CASOB (Cassia obtusifolia [16]; 0.025 kg/ha) | Assessment (pre-emergence application) CASOB (Cassia obtusifolia [16]; 0.100 kg/ha) | Assessment (pre-emergence application) CASOB (Cassia obtusifolia [16]; 0.400 kg/ha) | Assessment (pre-emergence application) ZEAMX (Zea mays [17]; 0.025 kg/ha) | Assessment (pre-emergence application) ZEAMX (Zea mays [17]; 0.100 kg/ha) | Assessment (pre-emergence application) ZEAMX (Zea mays [17]; 0.400 kg/ha) | Assessment (pre-emergence application) TRZWA (Triticum aestivum [20]; 0.025 kg/ha) | Assessment (pre-emergence application) TRZWA (Triticum aestivum [20]; 0.100 kg/ha) | Assessment (pre-emergence application) TRZWA (Triticum aestivum [20]; 0.400 kg/ha) | Assessment (pre-emergence application) ORYSA (Orysa sativa [22]; 0.025 kg/ha) | Assessment (pre-emergence application) LAMPU (Lamium purpureum; 0.025 kg/ha) | Assessment (pre-emergence application) IPOHE (Ipomoea hederacea [23]; 0.025 kg/ha) | Assessment (pre-emergence application) ECHCG (Echinochloa crus-galli [27]; 0.025 kg/ha) | Assessment (pre-emergence application) GLXMA (Glycine max [28]; 0.025 kg/ha) | Assessment (pre-emergence application) GLXMA (Glycine max [28]; 0.100 kg/ha)
7 (7-Good herbicidal effect): Post-emergence application GALAP (Galium aparine [10]; 0.100 kg/ha) | Assessment (pre-emergence application) SETVI (Setaria viridis [19]; 0.400 kg/ha) | Assessment (pre-emergence application) LAMPU (Lamium purpureum; 0.400 kg/ha)
8 (8-Approaching complete kill): Post-emergence application GALAP (Galium aparine [10]; 0.400 kg/ha) | Assessment (pre-emergence application) MATIN (Matricaria inodora [26]; 0.400 kg/ha)
5 (5-Definite injury): Post-emergence application ABUTH (Abutilon theophrasti [7]; 0.400 kg/ha) | Post-emergence application AMBEL (Ambrosia artemisifolia [11]; 0.100 kg/ha) | Post-emergence application AMBEL (Ambrosia artemisifolia [11]; 0.400 kg/ha) | Assessment (pre-emergence application) LAMPU (Lamium purpureum; 0.100 kg/ha)
